For experiment [1], the system named is Snu-16 gastric cancer cells (FGFR2 gene amplification). The experiment is described as follows: Cell proliferation assay (Cell Titer Glo), Snu-16. The note with it: Homo sapiens, SNU-16, 72 h, Snu-16 cells, 3 days, CTG; read-out: Cellular IC50 (nM) Sun16. In kind it is cell-based. The procedure:
(§1) II. Cell Proliferation Assay (Cell Titer Glo(CTG) Assay)
(§2) The FGFR signal pathway dependent inhibitory effect of the compound in the present invention on cell proliferation was assessed by survival test using CTG reagent (Promega, 4G7573). Cell lines representative of a variety of tumor types, including H1581 lung cancer cells (FGFR1 gene amplification), Snu-16 gastric cancer cells (FGFR2 gene amplification), and RT112 bladder carcinoma cells (FGFR3-TACC3 fusion) from Nanjing Cobioer Biosciences, were selected for the assay. The specific experimental procedure was as follows: • 1. 90 μL of cells were seeded into a 96-well plate processed with TCM (Costar 43904), and incubated overnight at 37° C. in a 5% CO2 incubator; afterwards, 10 μL of the culture medium containing the compound at 10 fold of its final concentration was added; • 2. The dose-dependent effect was evaluated by a serial dilution of the test compound, starting from 10 μM or a lower concentration. • 3. The cells were incubated at 37° C. under 5% C02 for 3 days, then added 50 μL CTG, and read the data with Envision (Pelkin Elmer) to quantify the ATP level in the cells. The ATP levels in cells with treatment of inhibitor at a variety of concentrations were compared with those in cells of the control group (in which DMSO was added into the medium) to evaluate the compound percent inhibition of cell proliferation/survival. • 4. The compound half growth inhibitory concentration (IC50) was determined in Graphpad Prism by 4-parameter curve fitting.
A general note: In ATP-based viability assays light output follows the ATP content of the culture.

In experiment [2] the test system is H1581 lung cancer cells (FGFR1 gene amplification). Put plainly: Cell proliferation assay (Cell Titer Glo), H1581. In kind it is cell-based. The note with it: Homo sapiens, NCI-H1581, 72 h, 3 days, CTG, read-out: Cellular IC50 (nM) H1581. The procedure: as §1, §2
In another experiment the target is FGFR1 (Homo sapiens (Human), UniProt P11362). Put plainly: In vitro biochemical kinase assay (Caliper Assay), FGFR1. The note with it: enzyme 0.25 nM, ATP 382 μM, 20 minutes; read-out: Enzymatic activity IC50(nM) FGFR1. As to the method: (§3) I. In Vitro Biochemical Kinase Assay of FGFR 1˜3
(§4) Caliper Assay was used in the present invention to determine the inhibitory activities of the compounds against FGFR1, FGFR2, and FGFR3. The specific experimental procedure was as follows: • 1. The kinase reaction in the present invention was carried out in 384-well plates, the kinase(Carna) at a certain concentration and ATP at a certain concentration and 1 μM of peptide FAM-P22 (GL Biochem, Cat. No. 112393)) was incubated to react for a certain time at 28° C. in a reaction system consisting of 50 mM HEPES, […], 0.0015% Brij-35 and basic kinase buffer; for FGFR1, the enzyme concentration was 0.25 nM and ATP concentration was 382 μM and the reaction time was 20 minutes; for FGFR2, the enzyme concentration was 2.5 nM, ATP concentration was 1 μM, and the reaction time was 40 minutes; for FGFR3, the enzyme concentration was 8 nM, ATP concentration was 4.7 μM, and the reaction time was 30 minutes: • 2. The reaction was terminated with a stop solution (100 mM HEPES, pH 7.5, 0.2% Caliper coating, reagent, 50 mM EDTA and 0.015% Brij35); • 3. The plate with the terminated kinase reaction was transferred to the Caliper workstation to read the data; • 4. the phosphorylated and unphosphorylated peptides were separated by the Caliper microfluid migration shift technique, and the analyte was transferred by a constant buffer flow through the chip, the migration of the substrate peptide was monitored by the labeled fluorescent signal, and the kinase activity was calculated by the amount of the phosphate-based peptide formed. • 5. IC50 was determined by non-linear regression analysis of percent inhibition at different concentration level of the compound.

The next experiment addresses FGFR2 (Homo sapiens (Human), UniProt P21802). Put plainly: In vitro biochemical kinase assay (Caliper Assay), FGFR2. The note with it: enzyme 2.5 nM, ATP 1 μM, 40 minutes; read-out: Enzymatic activity IC50(nM) FGFR2. As to the method:
as §3, §4

Some results are limits rather than exact numbers.

FGFR1, sequence (P11362 22-822): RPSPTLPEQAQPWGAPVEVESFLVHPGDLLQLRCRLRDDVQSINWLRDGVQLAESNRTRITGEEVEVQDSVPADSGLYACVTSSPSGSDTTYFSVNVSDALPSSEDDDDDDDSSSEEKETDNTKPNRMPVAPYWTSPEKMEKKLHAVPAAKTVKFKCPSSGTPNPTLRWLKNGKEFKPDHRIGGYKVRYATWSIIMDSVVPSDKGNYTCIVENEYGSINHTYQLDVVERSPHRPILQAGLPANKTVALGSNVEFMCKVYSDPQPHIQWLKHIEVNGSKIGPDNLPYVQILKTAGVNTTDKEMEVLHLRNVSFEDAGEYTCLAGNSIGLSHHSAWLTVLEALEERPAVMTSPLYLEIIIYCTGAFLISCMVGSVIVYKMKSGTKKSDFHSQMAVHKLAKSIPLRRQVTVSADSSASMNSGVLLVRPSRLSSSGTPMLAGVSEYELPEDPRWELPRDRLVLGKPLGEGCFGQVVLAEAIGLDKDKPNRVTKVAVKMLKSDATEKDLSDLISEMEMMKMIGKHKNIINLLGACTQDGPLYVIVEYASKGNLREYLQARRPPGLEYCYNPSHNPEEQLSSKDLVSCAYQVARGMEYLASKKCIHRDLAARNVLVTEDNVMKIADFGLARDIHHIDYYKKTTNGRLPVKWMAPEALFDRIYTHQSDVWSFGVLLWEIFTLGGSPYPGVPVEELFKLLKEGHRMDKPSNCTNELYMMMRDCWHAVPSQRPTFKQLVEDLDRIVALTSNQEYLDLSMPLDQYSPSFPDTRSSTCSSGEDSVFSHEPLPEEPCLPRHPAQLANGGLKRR
FGFR2, sequence (P21802 22-821): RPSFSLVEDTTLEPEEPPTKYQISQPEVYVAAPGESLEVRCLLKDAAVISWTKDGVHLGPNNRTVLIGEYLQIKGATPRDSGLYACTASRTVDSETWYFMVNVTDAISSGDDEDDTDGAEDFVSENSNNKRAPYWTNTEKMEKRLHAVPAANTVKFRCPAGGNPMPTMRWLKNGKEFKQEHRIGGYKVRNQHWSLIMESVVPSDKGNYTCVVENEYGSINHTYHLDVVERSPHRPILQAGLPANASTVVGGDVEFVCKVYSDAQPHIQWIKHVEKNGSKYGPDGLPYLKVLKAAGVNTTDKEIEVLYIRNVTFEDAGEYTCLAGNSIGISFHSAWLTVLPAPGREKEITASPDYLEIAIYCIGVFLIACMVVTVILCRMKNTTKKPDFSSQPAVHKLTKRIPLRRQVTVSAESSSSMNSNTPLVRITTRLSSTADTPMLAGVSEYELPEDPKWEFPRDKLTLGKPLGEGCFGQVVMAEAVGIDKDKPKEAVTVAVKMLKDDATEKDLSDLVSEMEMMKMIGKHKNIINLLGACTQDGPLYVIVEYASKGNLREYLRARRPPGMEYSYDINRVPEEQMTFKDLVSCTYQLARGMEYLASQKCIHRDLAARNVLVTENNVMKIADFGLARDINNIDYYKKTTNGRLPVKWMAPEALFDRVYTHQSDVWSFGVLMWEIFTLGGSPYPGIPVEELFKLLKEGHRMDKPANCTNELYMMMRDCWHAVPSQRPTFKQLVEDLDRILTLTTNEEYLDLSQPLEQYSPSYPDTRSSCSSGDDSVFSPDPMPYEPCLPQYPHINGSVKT

By IC50 is commonly meant the concentration that gives 50% inhibition. For `CCn1c(=O)c(-c2c(Cl)c(OC)cc(OC)c2Cl)cc2cnc(-c3cn(CCN4CCOCC4)nc3C)cc21` [Example 42, 3-(2,6-dichloro-3,5-dimethoxyphenyl)-1-ethyl-7-(3-methyl-1-(2-morpholinoethyl)-1H-pyrazol-4-yl)-1,6-naphthyridin-2(1H)-one], the figures for the IC50 in experiment [1] and in experiment [2] were 10 to 50 nM and 50 to 500 nM, respectively.
Take `COc1cc(OC)c(Cl)c(-c2cc3cnc(-c4cnn(C)c4)cc3n(C3CCOCC3)c2=O)c1Cl` [Example 17, 3-(2,6-dichloro-3,5-dimethoxyphenyl)-7-(1-methyl-1H-pyrazol-4-yl)-1-(tetrahydro-2H-pyran-4-yl)-1,6-naphthyridin-2(1H)-one]: the IC50 was in the range of 5 to 10 nM in experiment [1] and 50 to 500 nM in experiment [2].
The matching figures for `COc1cc(OC)c(F)c(-c2cc3cnc(-c4ccncc4)cc3n(C3CCOC3)c2=O)c1F` (stereo not shown) [Example 39, 3-(2,6-difluoro-3,5-dimethoxyphenyl)-7-(pyridin-4-yl)-1-(tetrahydrofuran-3-yl)-1,6-naphthyridin-2(1H)-one]: 50 to 500 nM and 50 to 500 nM.
Regarding `COc1cc(OC)c(F)c(-c2cc3cnc(-c4ccc(CC#N)cc4)cc3n(C3CCOC3)c2=O)c1F` (stereo not shown) [Example 41, 2-(4-(3-(2,6-difluoro-3,5-dimethoxyphenyl)-2-oxo-1-(tetrahydrofuran-3-yl)-1,2-dihydro-1,6-naphthyridin-7-yl)phenyl)acetonitrile], the IC50 in experiment [1] and in experiment [2] was 50 to 500 nM each time.
For the compound `CCn1c(=O)c(-c2c(Cl)c(OC)cc(OC)c2Cl)cc2cnc(-c3cn(CCN(C)C)nc3C)cc21` [Example 45, 3-(2,6-dichloro-3,5-dimethoxyphenyl)-7-(1-(2-(dimethylamino)ethyl)-3-methyl-1H-pyrazol-4-yl)-1-ethyl-1,6-naphthyridin-2(1H)-one], the IC50 was in the range of 10 to 50 nM in experiment [1] and 50 to 500 nM in experiment [2].
With `CCn1c(=O)c(-c2c(Cl)c(OC)cc(OC)c2Cl)cc2cnc(-c3cnn(C)c3)cc21` [Example 1, 3-(2,6-dichloro-3,5-dimethoxyphenyl)-1-ethyl-7-(1-methyl-1H-pyrazol-4-yl)-1,6-naphthyridin-2(1H)-one], the IC50 was 10 to 50 nM on FGFR1 and at most 5 nM on FGFR2.
For `CCn1c(=O)c(-c2c(Cl)c(OC)cc(OC)c2Cl)cc2cnc(-c3cnn(CC#N)c3C)cc21` [Example 50, 2-(4-(3-(2,6-dichloro-3,5-dimethoxyphenyl)-1-ethyl-2-oxo-1,2-dihydro-1,6-naphthyridin-7-yl)-5-methyl-1H-pyrazol-1-yl)acetonitrile], the IC50 in experiment [1] and in experiment [2] was above 500 nM throughout.
Consider `COc1cc(OC)c(F)c(-c2cc3cnc(-c4cnn(CCN5CCOCC5)c4)cc3n(CC3CC3)c2=O)c1F` [Example 31, 1-(cyclopropylmethyl)-3-(2,6-difluoro-3,5-dimethoxyphenyl)-7-(1-(2-morpholinoethyl)-1H-pyrazol-4-yl)-1,6-naphthyridin-2(1H)-one], for which the values for the 50% inhibitory concentration (IC50) in experiment [1] and in experiment [2] were 10 to 50 nM and 50 to 500 nM, respectively.
As for `CCn1c(=O)c(-c2c(Cl)c(OC)cc(OC)c2Cl)cc2cnc(-c3cnn(CCN(C)C)c3C)cc21` [Example 52, 3-(2,6-dichloro-3,5-dimethoxyphenyl)-7-(1-(2-(dimethylamino)ethyl)-5-methyl-1H-pyrazol-4-yl)-1-ethyl-1,6-naphthyridin-2(1H)-one], the IC50 in experiment [1] was 50 to 500 nM; in experiment [2] it was above 500 nM.
As for `CCn1c(=O)c(-c2c(Cl)c(OC)cc(OC)c2Cl)cc2cnc(-c3cn(CCC#N)nc3C)cc21` [Example 44, 3-(4-(3-(2,6-dichloro-3,5-dimethoxyphenyl)-1-ethyl-2-oxo-1,2-dihydro-1,6-naphthyridin-7-yl)-3-methyl-1H-pyrazol-1-yl)propanenitrile], the IC50 in experiment [1] and in experiment [2] was 50 to 500 nM in each case.
Turning to `CCn1c(=O)c(-c2c(Cl)c(OC)cc(OC)c2Cl)cc2cnc(-c3ccc(C4(C#N)CCC4)nc3)cc21` [Example 12, 1-(5-(3-(2,6-dichloro-3,5-dimethoxyphenyl)-1-ethyl-2-oxo-1,2-dihydro-1,6-naphthyridin-7-yl)pyridin-2-yl)cyclobutane-1-carbonitrile], the IC50 in experiment [1] is 50 to 500 nM; in experiment [2], above 500 nM.
Regarding `COc1cc(OC)c(F)c(-c2cc3cnc(-c4cnn(C)c4)cc3n(C(C)C)c2=O)c1F` [Example 26, 3-(2,6-difluoro-3,5-dimethoxyphenyl)-1-isopropyl-7-(1-methyl-1H-pyrazol-4-yl)-1,6-naphthyridin-2(1H)-one], the IC50 in experiment [1] and in experiment [2] was 10 to 50 nM each time.
Turning to `COc1cc(OC)c(F)c(-c2cc3cnc(-c4ccc(N5CC6CC5CO6)nc4)cc3n(C3CCOC3)c2=O)c1F` (stereo not shown) [Example 38, 7-(6-(2-oxa-5-azabicyclo[2.2.1]heptan-5-yl)pyridin-3-yl)-3-(2,6-difluoro-3,5-dimethoxyphenyl)-1-(tetrahydrofuran-3-yl)-1,6-naphthyridin-2(1H)-one], the IC50 was at most 5 nM in experiment [1] and 10 to 50 nM in experiment [2].
The corresponding values for `COc1cc(OC)c(Cl)c(-c2cc3cnc(-c4cn(CCN5CCOCC5)nc4C)cc3n(C)c2=O)c1Cl` [Example 47, 3-(2,6-dichloro-3,5-dimethoxyphenyl)-1-methyl-7-(3-methyl-1-(2-morpholinoethyl)-1H-pyrazol-4-yl)-1,6-naphthyridin-2(1H)-one] are 50 to 500 nM and 50 to 500 nM.
Turning to `COc1cc(OC)c(F)c(-c2cc3cnc(-c4cnccc4C)cc3n(C3CCOC3)c2=O)c1F` (stereo not shown) [Example 37, 3-(2,6-difluoro-3,5-dimethoxyphenyl)-7-(4-methylpyridin-3-yl)-1-(tetrahydrofuran-3-yl)-1,6-naphthyridin-2(1H)-one], the figures for the IC50 in experiment [1] and in experiment [2] were 50 to 500 nM and above 500 nM, respectively.
The corresponding values for `CCn1c(=O)c(-c2c(Cl)c(OC)cc(OC)c2Cl)cc2cnc(-c3cnn(CCC#N)c3C)cc21` [Example 51, 3-(4-(3-(2,6-dichloro-3,5-dimethoxyphenyl)-1-ethyl-2-oxo-1,2-dihydro-1,6-naphthyridin-7-yl)-5-methyl-1H-pyrazol-1-yl)propanenitrile] are 50 to 500 nM and above 500 nM.
The corresponding values for `CCn1c(=O)c(-c2c(Cl)c(OC)cc(OC)c2Cl)cc2cnc(-c3cnn(CCN4CCOCC4)c3C)cc21` [Example 49, 3-(2,6-dichloro-3,5-dimethoxyphenyl)-1-ethyl-7-(5-methyl-1-(2-morpholinoethyl)-1H-pyrazol-4-yl)-1,6-naphthyridin-2(1H)-one] are 50 to 500 nM and 50 to 500 nM.
Turning to `COc1cc(OC)c(F)c(-c2cc3cnc(-c4cccnc4)cc3n(C3CCOC3)c2=O)c1F` (stereo not shown) [Example 36, 3-(2,6-difluoro-3,5-dimethoxyphenyl)-7-(pyridin-3-yl)-1-(tetrahydrofuran-3-yl)-1,6-naphthyridin-2(1H)-one], the IC50 is 10 to 50 nM in experiment [1] and 50 to 500 nM in experiment [2].
The corresponding values for `COc1cc(OC)c(Cl)c(-c2cc3cnc(-c4cnn(C)c4)cc3n(C3CCOC3)c2=O)c1` (stereo not shown) [Example 24, 3-(2-chloro-3,5-dimethoxyphenyl)-7-(1-methyl-1H-pyrazol-4-yl)-1-(tetrahydrofuran-3-yl)-1,6-naphthyridin-2(1H)-one] are 10 to 50 nM and 50 to 500 nM.
Regarding `COc1cc(OC)c(Cl)c(-c2cc3cnc(-c4ccc(C5(C#N)CCC5)nc4)cc3n(C)c2=O)c1Cl` [Example 20, 1-(5-(3-(2,6-dichloro-3,5-dimethoxyphenyl)-1-methyl-2-oxo-1,2-dihydro-1,6-naphthyridin-7-yl)pyridin-2-yl)cyclobutane-1-carbonitrile], the results for the IC50 in experiment [1] and in experiment [2] were 50 to 500 nM and above 500 nM, respectively.

The values above are taken from patent US12351576B2, “FGFR inhibitor, preparation method therefor and application thereof” (Abbisko Therapeutics Co., Ltd., priority 2018, dated 2025).
